This passage reports level, % of control and viability results from ChEMBL document CHEMBL1142631, “Potential antitumor-promoting diterpenoids from the stem bark of Picea glehni” (J Nat Prod, 2000).

Data set [1] relates to Raji. In words: Inhibition of 12-O-tetradecanoylphorbol 13-acetate-induced Epstein-Barr virus early antigen activation in human Raji cells assessed as EA induction at 500 mol ratio relative to TPA; values are per cent of control. The conditions noted are these: human gammaherpesvirus 4.
Data set [2] concerns Raji. In words: Inhibition of 12-O-tetradecanoylphorbol 13-acetate-induced Epstein-Barr virus early antigen activation in human Raji cells assessed as EA induction at 1000 mol ratio relative to TPA; values are per cent of control. The following applies: human gammaherpesvirus 4.
The subject of data set [3] is Raji. In words: Inhibition of 12-O-tetradecanoylphorbol 13-acetate-induced Epstein-Barr virus early antigen activation in human Raji cells assessed as EA induction at 10 mol ratio relative to TPA; values are per cent of control. The following applies: human gammaherpesvirus 4.
The test system of data set [4] is Raji. Description: Inhibition of 12-O-tetradecanoylphorbol 13-acetate-induced Epstein-Barr virus early antigen activation in human Raji cells assessed as EA induction at 100 mol ratio relative to TPA; values are per cent of control. The conditions noted are these: human gammaherpesvirus 4.
Data set [5] in a line: Cytotoxicity against human Raji cells assessed as cell viability at 1000 molar ratio/TPA. The conditions noted are these: read-out: Activity. It is filed as cell-based.

In the case of `C=C1CCC[C@]2(C)c3ccc(C(C)C)cc3C(=O)C[C@@H]12`, the level, % of control is 31.6% in the data set on Raji [1], 0% with Raji [2], 96.1% with Raji [3] and 75.9% with Raji [4]. In addition, the viability at 1000 molar ratio/TPA in data set [5] was found to be 70%.
The corresponding values for `C=C[C@]1(C)CC[C@@H]2[C@@]3(C)CC[C@@H](C)C(=C)[C@@H]3CC[C@@]2(C)O1` are 38.8%, 5.1%, 100%, 77.1% and 70%.
Regarding `C=C[C@]1(C)CC[C@@H]2[C@@]3(C)CCCC(C)(C)[C@@H]3CC[C@@]2(C)O1`, the level, % of control with Raji [1] was found to be 35.9%; in the data set with Raji [2], 4.3%; in the data set on Raji [3] it was 100%; in the data set with Raji [4], 70.4%. For the same compound, in data set [5], the viability at 1000 molar ratio/TPA was 70%.
In the case of `CC1=C(/C=C/C(C)=C/C=C/C(C)=C/C=C/C=C(C)/C=C/C=C(C)/C=C/C2=C(C)CCCC2(C)C)C(C)(C)CCC1`, the level, % of control with Raji [1] was 34%; in the data set with Raji [2], 9%; in the data set with Raji [3], 100%; in the data set with Raji [4] it was 82%.
Turning to `CC(C)c1cc2c(cc1O)[C@@]1(C)CCC[C@@](C)(C(=O)O)[C@@H]1CC2`, the level, % of control with Raji [1] is 28%; in the data set on Raji [2], 2.7%; in the data set with Raji [3] it was 95.8%; in the data set with Raji [4], 66.4%. Moreover, the viability at 1000 molar ratio/TPA in data set [5] was 70%.
The corresponding values for `COC(=O)[C@]1(C)CCC[C@]2(C)c3ccc(C(C)(C)O)cc3C(=O)C[C@@H]12` are 28.1%, 0%, 95%, 72.9% and 70%.
On the same counts, the results for `CC(C)c1ccc2c(c1)CC[C@H]1[C@](C)(C(=O)O)CCC[C@]21C` [DEHYDROABIETIC ACID] are 30.6%, 0%, 95.2%, 75% and 70%.
On the same counts, the results for `CC(=O)/C=C/[C@@H]1[C@@]2(C)CCCC(C)(C)[C@@H]2CC[C@@]1(C)O` are 20.7%, 0%, 89.3%, 68.4% and 60%.
For the compound `CC(C)c1ccc2c(c1)CC[C@H]1[C@](C)(C(=O)O)CCC[C@]1(C)O2`, the level, % of control in the data set on Raji [1] is 52.7%; in the data set with Raji [2] it was 10.2%; in the data set with Raji [3], 96.9%; in the data set with Raji [4] it was 85%. Also, the viability at 1000 molar ratio/TPA in data set [5] was 60%.
As to `CC(C)[C@]12C=C3CC[C@H]4[C@](C)(C(=O)O)CCC[C@]4(C)[C@]3(CC1)OO2`, the level, % of control with Raji [1] stood at 24.2%; with Raji [2], 0%; in the data set on Raji [3] it was 90.5%; in the data set on Raji [4] it was 63.7%. Moreover, the viability at 1000 molar ratio/TPA in data set [5] amounted to 70%.
The corresponding values for `CC(C)c1ccc2c(c1)C(=O)C[C@H]1C(C)(C)CCC[C@]21C` are 30.2%, 0%, 95%, 74.7% and 70%.
